Measured values as given in patent publication US8513271B2, “Pyrimidine compounds as delta opioid receptor modulators” (Janssen Pharmaceutica, NV, priority 2009, dated 2013).
Several values for one entry are separate records, joined by “and”; a condition that tells them apart may be missing. Identical values can stand only once. Like-named read-outs stand apart in the source and are kept apart here.

How the values were obtained:
[1] = test system: CFA-induced paw radiant heat hypersensitivity; test: CFA-induced paw radiant heat hypersensitivity; format: in vivo, rat; settings: Rattus norvegicus, po
[2] = molecular target: hMOR (mu opioid receptor) (Homo sapiens, UniProt P35372); test: [35S]GTPγS binding assays in CHO-hMOR cell membranes (mu opioid functional assay); format: biochemical; settings: for inhibition at 10 µM: read-out: GTPγS μ-opioid receptor % Inh @10 μM
delta opioid receptor [3] = molecular target: T1, delta opioid receptor (Mus musculus, UniProt P32300); test: [35S]GTPγS binding assay in NG108-15 cell membranes (delta opioid functional assay), 200 nM screen; format: biochemical; settings: NG108-15 cell membranes; for GTPγS δ-RelEfficacy @200 nM: 200 nM test compound, relative to calculated max of SNC80 dose response curve; for GTPγS δ-RelEfficacy @200 nM / EC50: averages if tested more than once; for GTPγS δ-opioid receptor Rel Efficacy: relative efficacy from dose response
T1 construct: NG108-15 cell membranes were purchased from Applied Cell Sciences (Rockville, Md.); host or cells: NG108-15 cell membranes

mu opioid receptor = molecular target: T2, mu opioid receptor (Rattus norvegicus, UniProt P33535); test: Rat brain mu opioid receptor binding assay; settings: rat forebrain, [3H]DAMGO ligand
T2 construct: the forebrains were homogenized in Tris buffer in a Teflon®-glass homogenizer; from tissue; host or cells: forebrain of male Wistar rats, particulate (membrane) preparation

delta opioid receptor [4] = molecular target: T3, delta opioid receptor (Rattus norvegicus, UniProt P33533); test: Rat brain delta opioid receptor binding assay; settings: δ-binding (Naltrindole ligand) Ki, rat forebrain, [3H]naltrindole ligand
T3 construct: the forebrains were homogenized in Tris buffer in a Teflon®-glass homogenizer; from tissue; host or cells: forebrain of male Wistar rats, particulate (membrane) preparation

delta opioid receptor [5] = molecular target: T1, delta opioid receptor; test: NG108-15, 24-well delta opioid receptor binding assay
[6] = 1 h, read-out: maximum % reversal @ time (min), rat, 30 mg/kg p.o., 0.5% HPMC, @ 60 min
[7] = GTPγS δ-opioid receptor EC50 (μM)
[8] = 0.5 h, read-out: maximum % reversal @ time (min), rat, 30 mg/kg p.o., 0.5% HPMC, @ 30 min

Sequence of hMOR (mu opioid receptor) (P35372 whole entry, looked up): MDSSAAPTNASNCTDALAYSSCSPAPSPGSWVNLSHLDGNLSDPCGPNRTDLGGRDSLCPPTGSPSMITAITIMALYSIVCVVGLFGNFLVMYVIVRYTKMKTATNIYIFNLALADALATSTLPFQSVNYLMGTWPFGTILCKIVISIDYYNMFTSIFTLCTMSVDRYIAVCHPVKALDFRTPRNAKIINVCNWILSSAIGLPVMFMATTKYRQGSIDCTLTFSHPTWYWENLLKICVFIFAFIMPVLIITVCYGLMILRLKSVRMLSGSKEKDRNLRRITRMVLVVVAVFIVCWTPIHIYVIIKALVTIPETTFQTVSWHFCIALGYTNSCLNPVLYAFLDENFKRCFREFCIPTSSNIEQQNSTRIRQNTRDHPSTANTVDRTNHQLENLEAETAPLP
T1 sequence (P32300 whole entry): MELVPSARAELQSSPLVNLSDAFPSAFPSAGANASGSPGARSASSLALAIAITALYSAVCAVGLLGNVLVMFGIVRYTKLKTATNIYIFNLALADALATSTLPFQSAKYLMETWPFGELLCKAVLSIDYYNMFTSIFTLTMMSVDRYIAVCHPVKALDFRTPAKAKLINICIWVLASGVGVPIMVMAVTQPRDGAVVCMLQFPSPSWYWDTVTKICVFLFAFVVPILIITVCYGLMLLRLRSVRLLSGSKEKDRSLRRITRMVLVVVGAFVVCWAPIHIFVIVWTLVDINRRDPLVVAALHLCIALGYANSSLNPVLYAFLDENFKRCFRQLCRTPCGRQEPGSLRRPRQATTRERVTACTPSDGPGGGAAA
T2 sequence (P33535 whole entry): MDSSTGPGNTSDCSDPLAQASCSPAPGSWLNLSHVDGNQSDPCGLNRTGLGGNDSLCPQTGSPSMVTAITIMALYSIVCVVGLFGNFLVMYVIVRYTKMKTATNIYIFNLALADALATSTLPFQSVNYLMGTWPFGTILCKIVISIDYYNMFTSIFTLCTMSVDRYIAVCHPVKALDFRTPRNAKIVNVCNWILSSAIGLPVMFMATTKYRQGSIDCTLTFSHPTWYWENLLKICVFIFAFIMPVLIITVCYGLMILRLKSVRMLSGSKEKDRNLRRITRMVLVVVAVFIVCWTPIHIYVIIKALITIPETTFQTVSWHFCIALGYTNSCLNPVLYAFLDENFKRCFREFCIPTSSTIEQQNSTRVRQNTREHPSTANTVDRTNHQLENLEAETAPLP
T3 sequence (P33533 whole entry): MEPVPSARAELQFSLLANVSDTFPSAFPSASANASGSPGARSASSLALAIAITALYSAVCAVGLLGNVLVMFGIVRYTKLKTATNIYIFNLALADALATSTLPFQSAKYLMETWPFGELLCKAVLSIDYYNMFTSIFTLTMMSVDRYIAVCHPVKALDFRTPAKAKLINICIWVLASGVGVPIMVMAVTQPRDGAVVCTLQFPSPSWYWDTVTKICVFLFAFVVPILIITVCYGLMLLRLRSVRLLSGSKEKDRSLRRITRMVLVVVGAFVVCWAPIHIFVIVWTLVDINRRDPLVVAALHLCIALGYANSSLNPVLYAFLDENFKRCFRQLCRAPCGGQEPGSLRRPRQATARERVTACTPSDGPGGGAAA

Row | Structure (SMILES) | inhibition in vivo at 30 mg/kg [1, 6] | inhibition at 10 µM [2] | EC50 (delta opioid receptor [3]; [7]) | GTPγS δ-opioid receptor Rel Efficacy (delta opioid receptor [3]) | Ki (mu opioid receptor; μ-binding Ki) | Ki (delta opioid receptor [4]) | also measured
1 | COc1ccc(Oc2nc(-c3cccnc3)ncc2N2CCNCC2)cc1 [Cpd 327, 4-(4-Methoxy-phenoxy)-5-piperazin-1-yl-2-pyridin-3-yl-pyrimidine] | 102% | 4.26% | 0.0527 µM | 1.037 |  |  | ED50 ([1]; 1 h): 14.3 mg/kg; GTPγS δ-RelEfficacy @200 nM (delta opioid receptor [3]): 0.471
2 | COc1ccc(Oc2nc(-c3cncc(SC)c3)ncc2NC[C@@H]2CCCN2)cc1 [Cpd 107, [4-(4-Methoxy-phenoxy)-2-(5-methylsulfanyl-pyridin-3-yl)-pyrimidin-5-yl]-pyrrolidin-2-(S)-ylmethyl-amine] |  | 4.05% | 0.0213 µM | 0.957 | 39 nM | 1 nM | ED50 ([1]; 2 h): 32 mg/kg; inhibition in vivo at 100 mg/kg ([1]; 2 h, read-out: maximum % reversal @ time (min), rat, 100 mg/kg p.o., 0.5% HPMC, @ 120 min): 52.8%; EC50 [2]: 5100 nM; GTPγS δ-RelEfficacy @200 nM (delta opioid receptor [3]): 1.046
3 | COc1ccc(Oc2nc(-c3cncc(C#N)c3)ncc2NC[C@@H]2C[C@@H](F)CN2)cc1 [Cpd 134] |  | 1% | 0.004 µM | 1.087 | 27 nM |  | Ki (delta opioid receptor [5]): 0.0481 nM; EC50 [2]: 2780 nM
4 | COc1ccc(Oc2nc(-c3cncc(OC)c3)ncc2NC[C@@H]2CCCN2)cc1 [Cpd 68] |  | 11.5% | 0.031 µM | 0.912 | 465 nM | 2 nM | 
5 | COc1ccc(Oc2nc(-c3cncc(C)c3)ncc2NC[C@@H]2CCCN2)cc1 [Cpd 253] | 75.9% |  | 0.0168 µM | 0.997 |  |  | 
6 | COc1ccc(Oc2nc(-c3cncc(C)c3)ncc2NC[C@@H]2C[C@@H](F)CN2)cc1 [Cpd 238] | 39.5% |  | 0.008 µM | 0.966 |  |  | 
7 | COc1ccc(Oc2nc(-c3cccnc3)ncc2N2CCNC[C@@H]2C)cc1 [Cpd 354] | 24.7% |  | 0.026 µM | 1.050 |  |  | 
8 | COc1ccc(Oc2nc(-c3cncc(C)c3)ncc2N2CCNCC2)cc1 [Cpd 351] |  |  | 0.0249 µM and 0.034 µM | 1.036 and 1.056 |  |  | inhibition in vivo at 30 mg/kg [1, 8]: 9.8%
9 | COc1ccc(Oc2nc(-c3cncc(C#N)c3)ncc2NC[C@@H]2CCCN2)cc1F [Cpd 132] |  | 9.4% | 0.015 µM | 1.042 | 61 nM |  | Ki (delta opioid receptor [5]): 0.4 nM; EC50 [2]: 9280 nM
10 | COc1ccc(Oc2nc(-c3cccnc3)ncc2N2CCCNCC2)cc1 [Cpd 336] |  | 17.1% | 0.0502 µM | 1.009 |  |  | inhibition in vivo at 30 mg/kg [1, 8]: 23.4%; GTPγS δ-RelEfficacy @200 nM (delta opioid receptor [3]): 0.830
11 | CCOc1ccc(Oc2nc(-c3cncc(F)c3)ncc2NC[C@@H]2CCCN2)cc1 [Cpd 106] |  | 17% | 0.027 µM | 1.019 | 42 nM | 6 nM | EC50 [2]: > 10000 nM
12 | COc1ccc(Oc2nc(-c3cncc(C#N)c3)ncc2NC[C@@H]2CCCN2)c(F)c1F [Cpd 101] |  | 16.6% |  |  | 58 nM | 7 nM | EC50 ([2]; CHO-hMOR cell membranes, read-out: GTPγS μ-opioid receptor EC50): > 10000 nM; EC50 (delta opioid receptor [3]; read-out: GTPγS δ-opioid receptor EC50): 0.103 µM
13 | COc1ccc(Oc2nc(-c3cncc(OC)c3)ncc2NC[C@@H]2C[C@@H](F)CN2)cc1 [Cpd 235] | 43.7% |  | 0.00733 µM | 0.953 |  |  | GTPγS δ-RelEfficacy @200 nM (delta opioid receptor [3]): 0.962
14 | COc1ccc(Oc2nc(-c3cncc(OC)c3)ncc2N2CCCNCC2)cc1 [Cpd 346] |  |  | 0.047 µM | 1.031 |  |  | inhibition in vivo at 30 mg/kg [1, 8]: 37%
15 | COc1ccc(Oc2nc(-c3cncc(F)c3)ncc2NC[C@@H]2CCCN2)cc1 [Cpd 54] |  |  |  |  |  | 0.33 nM | Ki (mu opioid receptor; read-out: μ-binding Ki): 217 nM; inhibition in vivo at 100 mg/kg ([1]; 1 h, read-out: maximum % reversal @ time (min), rat, 100 mg/kg p.o., 0.5% HPMC, @ 60 min): 17.8%; inhibition in vivo at 100 mg/kg ([1]; 3 h, read-out: maximum % reversal @ time (min), rat, 100 mg/kg p.o., 0.5% HPMC, @ 180 min): 32.7%; Ki (delta opioid receptor [5]): 0.188 nM
